Measured values reported in ChEMBL document CHEMBL2331530, “Novel 3-O-carbamoyl erythromycin A derivatives (carbamolides) with activity against resistant staphylococcal and streptococcal isolates” (2013).
In brackets after ≈: the same amount, converted by molar mass.

Legend:
Assay type in all cases: functional
[1] = test system: Streptococcus pneumoniae; assay: Antibacterial activity against macrolides, lincosamides, and streptogramin B-resistant Streptococcus pneumoniae 1243-00 assessed as growth inhibition
[2] = test system: Staphylococcus aureus; assay: Antibacterial activity against Staphylococcus aureus ATCC 29213 assessed as growth inhibition
[3] = test system: Staphylococcus epidermidis; assay: Antibacterial activity against macrolides, lincosamides, streptogramin B and methicillin-resistant Staphylococcus epidermidis 1105-00 assessed as growth inhibition
[4] = test system: Streptococcus pyogenes; assay: Antibacterial activity against macrolides, lincosamides, and streptogramin B-resistant Streptococcus pyogenes 1304-00 assessed as growth inhibition
[5] = test system: Staphylococcus aureus; assay: Antibacterial activity against methicillin-resistant Staphylococcus aureus 1279-07 harboring cfr gene assessed as growth inhibition
[6] = test system: Staphylococcus aureus; assay: Antibacterial activity against macrolides, lincosamides, streptogramin B and methicillin-resistant Staphylococcus aureus 1015-00 assessed as growth inhibition
[7] = test system: Staphylococcus aureus; assay: Antibacterial activity against methicillin-resistant Staphylococcus aureus 2111-10-USA300 harboring cfr gene assessed as growth inhibition
[8] = test system: Staphylococcus aureus; assay: Antibacterial activity against methicillin-resistant Staphylococcus aureus 1279-07-USA300 assessed as growth inhibition
[9] = test system: Staphylococcus aureus; assay: Antibacterial activity against methicillin-resistant Staphylococcus aureus 1281-07 harboring cfr gene assessed as growth inhibition
[10] = test system: Staphylococcus aureus; assay: Antibacterial activity against macrolides, lincosamides, streptogramin B and methicillin-resistant Staphylococcus aureus 1609-09 harboring cfr gene assessed as growth inhibition

| Structure (SMILES) | MIC [1] | MIC [2] | MIC [3] | MIC [4] | MIC [5] | MIC [6] | MIC [7] | MIC [8] | MIC [9] | MIC [10] |
| --- | --- | --- | --- | --- | --- | --- | --- | --- | --- | --- |
| CC[C@H]1OC(=O)[C@H](C)[C@@H](OC(=O)N2CC(C)(C)C[C@@H]2c2ccccc2Cl)[C@H](C)[C@@H](O[C@@H]2O[C@H](C)C[C@H](N(C)C)[C@H]2O)[C@](C)(OC)C[C@@H](C)C(=O)[C@H](C)[C@H]2NC(=O)O[C@@]21C | 0.25 µg/mL (≈ 0.294 µM) | 0.25 µg/mL (≈ 0.294 µM) | 64 µg/mL (≈ 75.3 µM) | 0.25 µg/mL (≈ 0.294 µM) | 0.25 µg/mL (≈ 0.294 µM) | 64 µg/mL (≈ 75.3 µM) | 0.25 µg/mL (≈ 0.294 µM) | 2 µg/mL (≈ 2.35 µM) | 0.25 µg/mL (≈ 0.294 µM) | 64 µg/mL (≈ 75.3 µM) |
| CC[C@H]1OC(=O)[C@H](C)[C@@H](OC(=O)N2CC(C)(C)C[C@@H]2c2cccc(Cl)c2)[C@H](C)[C@@H](O[C@@H]2O[C@H](C)C[C@H](N(C)C)[C@H]2O)[C@](C)(OC)C[C@@H](C)C(=O)[C@H](C)[C@H]2NC(=O)O[C@@]21C | 0.03 µg/mL (≈ 0.0353 µM) | 0.25 µg/mL (≈ 0.294 µM) | 64 µg/mL (≈ 75.3 µM) | 0.03 µg/mL (≈ 0.0353 µM) | 0.25 µg/mL (≈ 0.294 µM) | > 64 µg/mL | 0.25 µg/mL (≈ 0.294 µM) | 0.25 µg/mL (≈ 0.294 µM) | 0.125 µg/mL (≈ 0.147 µM) | > 64 µg/mL |
| CC[C@H]1OC(=O)[C@H](C)[C@@H](OC(=O)N2CC(C)(C)C[C@@H]2c2cccc3c2OCO3)[C@H](C)[C@@H](O[C@@H]2O[C@H](C)C[C@H](N(C)C)[C@H]2O)[C@](C)(OC)C[C@@H](C)C(=O)[C@H](C)[C@H]2NC(=O)O[C@@]21C | 0.03 µg/mL (≈ 0.0349 µM) | 0.125 µg/mL (≈ 0.145 µM) | 16 µg/mL (≈ 18.6 µM) | 0.03 µg/mL (≈ 0.0349 µM) | 0.125 µg/mL (≈ 0.145 µM) | 64 µg/mL (≈ 74.4 µM) | 0.125 µg/mL (≈ 0.145 µM) | 0.5 µg/mL (≈ 0.581 µM) | 0.125 µg/mL (≈ 0.145 µM) | > 64 µg/mL |
| CC[C@H]1OC(=O)[C@H](C)[C@@H](OC(=O)N2CC(C)(C)C[C@@H]2c2ccc3c(c2)OCO3)[C@H](C)[C@@H](O[C@@H]2O[C@H](C)C[C@H](N(C)C)[C@H]2O)[C@](C)(OC)C[C@@H](C)C(=O)[C@H](C)[C@H]2NC(=O)O[C@@]21C | 0.5 µg/mL (≈ 0.581 µM) | 0.25 µg/mL (≈ 0.291 µM) | > 64 µg/mL | 2 µg/mL (≈ 2.33 µM) | 0.25 µg/mL (≈ 0.291 µM) | > 64 µg/mL | 0.25 µg/mL (≈ 0.291 µM) | 4 µg/mL (≈ 4.65 µM) | 0.25 µg/mL (≈ 0.291 µM) | > 64 µg/mL |
| CC[C@H]1OC(=O)[C@H](C)[C@@H](OC(=O)N2CC(C)(C)C[C@@H]2c2cccnc2)[C@H](C)[C@@H](O[C@@H]2O[C@H](C)C[C@H](N(C)C)[C@H]2O)[C@](C)(OC)C[C@@H](C)C(=O)[C@H](C)[C@H]2NC(=O)O[C@@]21C | 0.03 µg/mL (≈ 0.0367 µM) | 4 µg/mL (≈ 4.9 µM) | 16 µg/mL (≈ 19.6 µM) | 0.03 µg/mL (≈ 0.0367 µM) | – | > 64 µg/mL | – | > 64 µg/mL | – | > 64 µg/mL |
| CC[C@H]1OC(=O)[C@H](C)[C@@H](OC(=O)N2CCC[C@@H]2c2cccnc2)[C@H](C)[C@@H](O[C@@H]2O[C@H](C)C[C@H](N(C)C)[C@H]2O)[C@](C)(OC)C[C@@H](C)C(=O)[C@H](C)[C@H]2NC(=O)O[C@@]21C | 0.5 µg/mL (≈ 0.634 µM) | 0.25 µg/mL (≈ 0.317 µM) | > 64 µg/mL | 0.5 µg/mL (≈ 0.634 µM) | 16 µg/mL (≈ 20.3 µM) | > 64 µg/mL | 0.25 µg/mL (≈ 0.317 µM) | 16 µg/mL (≈ 20.3 µM) | 0.125 µg/mL (≈ 0.158 µM) | > 64 µg/mL |
| CC[C@H]1OC(=O)[C@H](C)[C@@H](O[C@H]2C[C@@](C)(OC)[C@@H](O)[C@H](C)O2)[C@H](C)[C@@H](O[C@@H]2O[C@H](C)C[C@H](N(C)C)[C@H]2O)[C@](C)(OC)C[C@@H](C)C(=O)[C@H](C)[C@@H](O)[C@]1(C)O [CLARITHROMYCIN] | 0.125 µg/mL (≈ 0.167 µM) | 0.5 µg/mL (≈ 0.668 µM) | 8 µg/mL (≈ 10.7 µM) | 0.25 µg/mL (≈ 0.334 µM) | 0.5 µg/mL (≈ 0.668 µM) | 16 µg/mL (≈ 21.4 µM) | 0.5 µg/mL (≈ 0.668 µM) | 1 µg/mL (≈ 1.34 µM) | 0.25 µg/mL (≈ 0.334 µM) | 16 µg/mL (≈ 21.4 µM) |
| CC(=O)NC[C@H]1CN(c2ccc(N3CCOCC3)c(F)c2)C(=O)O1 [LINEZOLID] | 0.125 µg/mL (≈ 0.371 µM) | 0.5 µg/mL (≈ 1.48 µM) | 8 µg/mL (≈ 23.7 µM) | 0.125 µg/mL (≈ 0.371 µM) | 0.5 µg/mL (≈ 1.48 µM) | 8 µg/mL (≈ 23.7 µM) | 0.5 µg/mL (≈ 1.48 µM) | 1 µg/mL (≈ 2.96 µM) | 0.5 µg/mL (≈ 1.48 µM) | 8 µg/mL (≈ 23.7 µM) |
